# Data taken from PubChem BioAssay (NCI).
#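 Abbreviation: GI50, concentration required for 50% inhibition of growth. TGI is the concentration that stops growth completely.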
# What was measured:
# Assay in all cases: inhibition of tumour cell growth, NCI panel, 384-well format
# [1] = test system: 786-0 renal
# [2] = test system: A498 renal
# [3] = test system: A549 NSCLC
# [4] = test system: ACHN renal
# [5] = test system: BT-549 breast
# [6] = test system: CAKI-1 renal
# [7] = test system: CCRF-CEM leukemia
# [8] = test system: COLO 205 colon
# [9] = test system: DU-145 prostate
# [10] = test system: EKVX NSCLC
# [11] = test system: HCC-2998 colon
# [12] = test system: HCT-116 colon
# [13] = test system: HCT-15 colon
# [14] = test system: HL-60(TB) leukemia
# [15] = test system: HOP-62 NSCLC
# [16] = test system: HOP-92 NSCLC
# [17] = test system: HT29 colon
# [18] = test system: IGROV1 ovarian
# [19] = test system: K-562 leukemia
# [20] = test system: KM12 colon
# [21] = test system: LOX IMVI melanoma
# [22] = test system: M14 melanoma
# [23] = test system: MALME-3M melanoma
# [24] = test system: MCF7 breast
# [25] = test system: MDA-MB-231 breast
# [26] = test system: MDA-MB-435 melanoma
# [27] = test system: MDA-MB-468 breast
# [28] = test system: MOLT-4 leukemia
# [29] = test system: NCI-H226 lung
# [30] = test system: NCI-H23 lung
# [31] = test system: NCI-H322M lung
# [32] = test system: NCI-H460 NSCLC
# [33] = test system: NCI-H522 lung
# [34] = test system: NCI/ADR-RES ovarian
# [35] = test system: OVCAR-3 ovarian
# [36] = test system: OVCAR-4 ovarian
# [37] = test system: OVCAR-5 ovarian
# [38] = test system: OVCAR-8 ovarian
# [39] = test system: PC-3 prostate
# [40] = test system: RPMI-8226 leukemia
# [41] = test system: RXF 393 renal
# [42] = test system: SF-268 CNS
# [43] = test system: SF-295 CNS
# [44] = test system: SF-539 CNS
# [45] = test system: SK-MEL-2 melanoma
# [46] = test system: SK-MEL-28 melanoma
# [47] = test system: SK-MEL-5 melanoma
# [48] = test system: SK-OV-3 ovarian
# [49] = test system: SN12C renal
# [50] = test system: SNB-19 CNS
# [51] = test system: SNB-75 CNS
# [52] = test system: SR leukemia
# [53] = test system: SW-620 colon
# [54] = test system: T-47D breast
# [55] = test system: TK-10 renal
# [56] = test system: U251 glioblastoma
# [57] = test system: UACC-257 melanoma
# [58] = test system: UACC-62 melanoma
# [59] = test system: UO-31 renal
# [60] = test system: HS 578T breast
compound,measurement,setting,value
COc1ccc(Cl)c(Nc2nc3ccccc3nc2NS(=O)(=O)c2cccc(NC(=O)C(C)(C)N)c2)c1,GI50,[1],9.77 µM
same,TGI,[1],22.6 µM
same,GI50,[2],6.64 µM
same,TGI,[2],19.5 µM
same,GI50,[3],10.5 µM
same,TGI,[3],22.4 µM
same,GI50,[4],10.2 µM
same,TGI,[4],23.3 µM
same,GI50,[5],3.17 µM
same,TGI,[5],14.1 µM
same,GI50,[6],7.59 µM
same,TGI,[6],21.7 µM
same,GI50,[7],12 µM
same,TGI,[7],24.4 µM
same,GI50,[8],11.3 µM
same,TGI,[8],23.5 µM
same,GI50,[9],11.4 µM
same,TGI,[9],24.4 µM
same,GI50,[10],4.81 µM
same,TGI,[10],19.5 µM
same,GI50,[11],8.3 µM
same,TGI,[11],22.6 µM
same,GI50,[12],14.7 µM
same,TGI,[12],28 µM
same,GI50,[13],12.3 µM
same,TGI,[13],25 µM
same,GI50,[14],2.69 µM
same,TGI,[14],10.7 µM
same,GI50,[15],13.6 µM
same,TGI,[15],26.6 µM
same,GI50,[16],0.977 µM
same,TGI,[16],5.87 µM
same,GI50,[17],10.2 µM
same,TGI,[17],21.9 µM
same,GI50,[18],1.38 µM
same,TGI,[18],3.79 µM
same,GI50,[19],13.6 µM
same,TGI,[19],26.6 µM
same,GI50,[20],13.7 µM
same,TGI,[20],26.7 µM
same,GI50,[21],12.8 µM
same,TGI,[21],25.4 µM
same,GI50,[22],12.5 µM
same,TGI,[22],25.1 µM
same,GI50,[23],9.58 µM
same,TGI,[23],21.6 µM
same,GI50,[24],2.76 µM
same,TGI,[24],14.5 µM
same,GI50,[25],14.3 µM
same,TGI,[25],27.5 µM
same,GI50,[26],12.5 µM
same,TGI,[26],25.1 µM
same,GI50,[27],1.84 µM
same,TGI,[27],10.1 µM
same,GI50,[28],2.37 µM
same,TGI,[28],7.66 µM
same,GI50,[29],10.9 µM
same,TGI,[29],22.9 µM
same,GI50,[30],4.73 µM
same,TGI,[30],20.1 µM
same,GI50,[31],10.2 µM
same,TGI,[31],23.4 µM
same,GI50,[32],5.5 µM
same,TGI,[32],18.5 µM
same,GI50,[33],9.12 µM
same,TGI,[33],21.6 µM
same,GI50,[34],11 µM
same,TGI,[34],23.2 µM
same,GI50,[35],3.11 µM
same,TGI,[35],15.5 µM
same,GI50,[36],10.2 µM
same,TGI,[36],24.4 µM
same,GI50,[37],9.79 µM
same,TGI,[37],22.3 µM
same,GI50,[38],12.2 µM
same,TGI,[38],24.9 µM
same,GI50,[39],4.02 µM
same,TGI,[39],16.3 µM
same,GI50,[40],3.2 µM
same,TGI,[40],11.4 µM
same,GI50,[41],2.38 µM
same,TGI,[41],8.35 µM
same,GI50,[42],10.9 µM
same,TGI,[42],22.9 µM
same,GI50,[43],5.29 µM
same,TGI,[43],17.9 µM
same,GI50,[44],8.54 µM
same,TGI,[44],21.1 µM
same,GI50,[45],11.7 µM
same,TGI,[45],24.6 µM
same,GI50,[46],3.91 µM
same,TGI,[46],16.7 µM
same,GI50,[47],12.8 µM
same,TGI,[47],25.5 µM
same,GI50,[48],5.4 µM
same,TGI,[48],19.3 µM
same,GI50,[49],8.86 µM
same,TGI,[49],21.3 µM
same,GI50,[50],12.2 µM
same,TGI,[50],24.8 µM
same,GI50,[51],2.43 µM
same,TGI,[51],10.1 µM
same,GI50,[52],8.2 µM
same,TGI,[52],21.6 µM
same,GI50,[53],10.2 µM
same,TGI,[53],22.9 µM
same,GI50,[54],1.57 µM
same,TGI,[54],7.84 µM
same,GI50,[55],5.77 µM
same,TGI,[55],19.5 µM
same,GI50,[56],11.8 µM
same,TGI,[56],24.3 µM
same,GI50,[57],11.6 µM
same,TGI,[57],24.2 µM
same,GI50,[58],6.72 µM
same,TGI,[58],19.6 µM
same,GI50,[59],2.73 µM
same,TGI,[59],13.3 µM
O=c1c(O)c(-c2ccc(O)c(O)c2)oc2cc(O)cc(O)c12,GI50,[1],36.5 µM
same,TGI,[1],> 100 µM
same,GI50,[2],14.2 µM
same,TGI,[2],73.2 µM
same,GI50,[3],28.2 µM
same,TGI,[3],> 100 µM
same,GI50,[4],35.1 µM
same,TGI,[4],88.2 µM
same,GI50,[5],17 µM
same,TGI,[5],61.7 µM
same,GI50,[6],44.8 µM
same,TGI,[6],> 100 µM
same,GI50,[7],13.7 µM
same,TGI,[7],26.7 µM
same,GI50,[8],> 100 µM
same,TGI,[8],> 100 µM
same,GI50,[9],24.4 µM
same,TGI,[9],94 µM
same,GI50,[10],24.6 µM
same,TGI,[10],> 100 µM
same,GI50,[11],29.4 µM
same,TGI,[11],93.2 µM
same,GI50,[13],27 µM
same,TGI,[13],97.4 µM
same,GI50,[14],12.4 µM
same,TGI,[14],25.3 µM
same,GI50,[15],11.1 µM
same,TGI,[15],23.1 µM
same,GI50,[16],20.8 µM
same,TGI,[16],65.7 µM
same,GI50,[60],6.06 µM
same,TGI,[60],23.1 µM
same,GI50,[17],46.4 µM
same,TGI,[17],> 100 µM
same,GI50,[18],20.5 µM
same,TGI,[18],55.7 µM
same,GI50,[20],22.9 µM
same,TGI,[20],96.5 µM
same,GI50,[22],20.5 µM
same,TGI,[22],47.1 µM
same,GI50,[23],20 µM
same,TGI,[23],76.4 µM
same,GI50,[24],18.9 µM
same,TGI,[24],33.8 µM
same,GI50,[25],10.9 µM
same,TGI,[25],40.3 µM
same,GI50,[26],17 µM
same,TGI,[26],54.6 µM
same,GI50,[27],2.54 µM
same,TGI,[27],7.46 µM
same,GI50,[28],13.6 µM
same,TGI,[28],26.6 µM
same,GI50,[29],24.1 µM
same,TGI,[29],69 µM
same,GI50,[30],13.2 µM
same,TGI,[30],29.7 µM
same,GI50,[31],26.1 µM
same,TGI,[31],98.8 µM
same,GI50,[32],14.9 µM
same,TGI,[32],31.7 µM
same,GI50,[33],8.75 µM
same,TGI,[33],43.1 µM
same,GI50,[34],20 µM
same,TGI,[34],40.2 µM
same,GI50,[35],16.2 µM
same,TGI,[35],42.3 µM
same,GI50,[36],19.1 µM
same,TGI,[36],44.5 µM
same,GI50,[37],20.9 µM
same,TGI,[37],62.5 µM
same,GI50,[38],20.9 µM
same,TGI,[38],55.2 µM
same,GI50,[39],25.5 µM
same,TGI,[39],74.5 µM
same,GI50,[40],15.3 µM
same,TGI,[40],33.9 µM
same,GI50,[41],18 µM
same,TGI,[41],56.2 µM
same,GI50,[42],17.3 µM
same,TGI,[42],40.2 µM
same,GI50,[43],17.3 µM
same,TGI,[43],33.2 µM
same,GI50,[44],14.5 µM
same,TGI,[44],32.6 µM
same,GI50,[45],19.1 µM
same,TGI,[45],39.6 µM
same,GI50,[46],33.2 µM
same,TGI,[46],93.1 µM
same,GI50,[47],16.8 µM
same,TGI,[47],53.4 µM
same,GI50,[48],19.8 µM
same,TGI,[48],51.7 µM
same,GI50,[49],28.8 µM
same,TGI,[49],79.8 µM
same,GI50,[50],24.9 µM
same,TGI,[50],71.7 µM
same,GI50,[51],14.3 µM
same,TGI,[51],30.5 µM
same,GI50,[52],1.94 µM
same,TGI,[52],3.53 µM
same,GI50,[53],41.9 µM
same,TGI,[53],> 100 µM
same,GI50,[54],19.9 µM
same,TGI,[54],36.8 µM
same,GI50,[55],45.4 µM
same,TGI,[55],> 100 µM
same,GI50,[56],12.8 µM
same,TGI,[56],36 µM
same,GI50,[57],23.4 µM
same,TGI,[57],> 100 µM
same,GI50,[58],16.6 µM
same,TGI,[58],33.5 µM
